Results published in patent US9700499B2, “Antimicrobial compositions” (GIVAUDAN SA, priority 2005, dated 2017).
Entries after “also recorded” stand apart in the source; their conditions may differ.

Experiments:
Type in all cases: cell-based
[1] = system: Candida albicans ATCC 10231, Candida guilliermondii ATCC 6260 and Candida parapsilosis ATCC 22019; assay: Activity against yeasts in cosmetic cream (mixture of three yeast strains 1:1:1)
Description: The same procedure as described above except for the changes mentioned below is performed with a mixture of the three yeast strains Candida albicans ATCC 10231, Candida guilliermondii ATCC 6260 and Candida parapsilosis ATCC 22019 that replace the bacterial strains.
The yeast strains are grown in Sabouraud liquid medium, washed and suspended in saline and adjusted to 5×10^7 cfu (colony forming units) per ml. The Inoculum of the three strains is then pooled in a ratio of 1:1:1. For determining the reduction factor by counting of the colonies formed, the samples inoculated with the yeast strains are spread plated on potato dextrose, incubated until colonies have formed and counted.

[2] = system: Aspergillus niger ATCC 16404 spores; assay: Sporicidal effect of test compounds and preservatives in a cosmetic cream
Description: A cosmetic cream (pH 5.5) for application to the human skin is formulated as follows (in % w/w): […]
Glyceryl-monostearate, Sweet almond oil, Cetyl-stearyl-alcohol and Glyceryl dilaurate are melted at 80° C. Xanthan gum is dispersed into glycerine. Arginine is dissolved in water and heated to 75° C. The Xanthan gum-glycerin suspension is added to the heated water phase, the heated oil phase is added and the suspension is stirred at 300 rpm for 10 min whilst being cooled down slowly. Finally, a homogeneous emulsion is made with a high speed homogenizer at 5000 rpm.
Test samples of cream contain different amounts of preservatives and/or preservative enhancer. The preservative and preservative enhancer is added to an aliquot of 10 g of the cream in 50 ml tubes to a concentration (w/w) of 0.1-0.5% as shown in the table below. After addition of the preservative/preservative enhancer, the cream is thoroughly mixed to achieve a homogeneous distribution.
After 1-3 days of equilibration of the cream (storage at room temperature to achieve a homogenous partitioning of compounds between oil and water phase), to each sample 100 μl of a spore suspension of Aspergillus niger ATCC 16404 containing 3×10^7 spores/ml (prepared as described in example 1) is added. After regular test intervals, samples of 1 g cream are removed and added to 20 ml of a neutralizer solution containing 0.2% lecithin, 2% Tween 80 and 0.5% NaCl. These dilutions are vigorously shaken for 10 min until the cream is dissolved, and then aliquots of this solution are spread plated on potato dextrose agar containing 0.2% Tween 80. After 48 h to 72 h the number of surviving colony forming units (and therefore surviving spores) are counted.
The sporidical effect in cream (prepared as described in example 2) is compared when using the test compounds alone or in combination with phenoxyethanol, benzyl alcohol or 2-Phenylethanol.
The experiments described in example 2-4 are performed with varying concentrations of test compound and preservative as indicated in Table 5.

[3] = system: Aspergillus niger ATCC 16404 spores; assay: Sporicidal effect of test compounds in water
Description: Aspergillus niger ATCC 16404 spores are added to water to obtain a density of 3×10^5 spores/ml. In order to prepare the spores, the test strain is grown for 5 days on potato dextrose agar at room temperature. The spores are harvested with a solution containing 0.1% Tween 80, peptone 0.1% and NaCl 0.85% and the spore concentration is adjusted to the density indicated above.
Test compounds are dissolved in dipropyleneglycol to a concentration of 20%.
These stock solutions are added to 10 ml aliquots of the spore suspension to obtain a final concentration of the test compounds of 0.1%. The sporicidal effect is shown by a reduction of spore counts after 7 days.
The reduction factor is determined as follows. Aliquots of the above prepared suspension of microorganisms (here: spore suspension prepared as described above) are plated on a suitable agar medium (see above) and the developing colonies are counted both for samples with test compound and for a negative probe (water). The count of the negative control is divided by the count of the test compound and thereby the reduction factor is determined. A negative control (water) accordingly has a reduction factor of 1 (no effect on the microorganism).

[4] = system: Staphylococcus aureus (DSMZ 799) and Pseudomonas aeruginosa (ATCC 15442); assay: Activity against bacteria in cosmetic cream (mixed inoculum 1:1)
Description: As test organisms Staphylococcus aureus (DSMZ 799) and Pseudomonas aeruginosa (ATCC 15442) are used. The strains are grown overnight in Mueller-Hinton broth and adjusted to a cell density of 1×10^8 cfu (colony forming units) per ml.
The two bacterial strains are mixed in a ratio of 1:1 and 100 μl of this mixed inoculum is added to 10 ml aliquots of the cosmetic cream supplemented with test compounds as described in Example 2 in the concentration as indicated in the table below.
The resulting mixtures are incubated at room temperature and at the regular intervals samples are removed, suspended in neutralizer solution and diluted as described above (example 2).
Aliquots of these suspended and diluted samples are plated on tryptic soy agar supplemented with 0.5% Tween 80 and then incubated for 24 h at 37° C. Surviving bacteria are counted.

[5] = test compound 0.1% alone, no preservative
[6] = test compound 0.1% with 2-Phenylethanol 0.5%
[7] = test compound 0.1% with Phenoxyethanol 0.5%

O=Cc1ccc(O)cc1 [4-hydroxybenzaldehyde]
Yeasts (cfu/g cream) 48 h [1, 5]: 7.4 × 10^3 cfu/g cream | Yeasts (cfu/g cream) 7 d [1, 5]: 2.2 × 10^5 cfu/g cream | Yeasts (cfu/g cream) 48 h [1, 6]: <200 cfu/g cream | Yeasts (cfu/g cream) 7 d [1, 6]: <200 cfu/g cream | Yeasts (cfu/g cream) 48 h [1, 7]: <200 cfu/g cream | Yeasts (cfu/g cream) 7 d [1, 7]: <200 cfu/g cream | Spores/ml after 7 d ([2]; 0.1% test compound and 0.5% phenoxyethanol (Table 2)): <100 Spores/ml | Reduction factor ([2]; 0.1% test compound and 0.5% phenoxyethanol, 7 d (Table 2)): >737 | Enhancing activity in cream ([2]; 0.1% test compound with phenoxyethanol, complete killing of spores within 7 days): excellent enhancing activity | Reduction factor A. niger, 7 d ([2]; test compound 0.05% w/w with preservative (phenoxyethanol) 0.5% w/w (Table 5)): 66 | Reduction factor A. niger, 7 d ([2]; test compound 0.1% w/w with preservative (phenoxyethanol) 0.3% w/w (Table 5)): 295 | Reduction factor A. niger, 7 d ([2]; test compound 0.1% w/w with preservative (phenoxyethanol) 0.5% w/w (Table 5)): >1180 | Reduction factor A. niger, 7 d ([2]; test compound 0.1% w/w, preservative 0 (Table 5)): 2 | Spores/ml after 7 d ([2]; test compound 0.1% with 2-Phenylethanol 0.25% + benzylalcohol 0.25%): <100 Spores/ml | Reduction factor ([2]; test compound 0.1% with 2-Phenylethanol 0.25% + benzylalcohol 0.25%, 7 d): >1040 | Spores/ml after 7 d [2, 6]: <100 Spores/ml | Spores/ml after 7 d ([2]; test compound 0.1% with 2-Phenylethanol 0.5% + benzylalcohol 0.5%): <100 Spores/ml | Reduction factor ([2]; test compound 0.1% with 2-Phenylethanol 0.5% + benzylalcohol 0.5%, 7 d): >1040 | Reduction factor ([2]; test compound 0.1% with 2-Phenylethanol 0.5%, 7 d): >1040 | Spores/ml after 7 d ([2]; test compound (0.1% where given) with Phenoxyethanol 0.5% (Table 3)): <100 Spores/ml | Reduction factor ([2]; test compound (0.1% where given) with Phenoxyethanol 0.5%, 7 d (Table 3)): >1040 | Spores/ml after 7 d ([2]; test compound alone (0.1% where given), no preservative (Table 3)): 1.0 × 10^5 Spores/ml | Reduction factor ([2]; test compound alone (0.1% where given), no preservative, 7 d (Table 3)): 1.04 | Enhancing effect of the test compound in presence of the preservative compound (phenoxyethanol) ([2]; varying concentrations (Table 5)): enhancing effect | Reduction factor ([3]; 0.1% test compound in water, after 7 days, count of negative control divided by count of test compound): <2 | Spores/ml ([3]; 0.1% test compound in water, spore count after 7 days): >1.2 × 10^5 Spores/ml | Sporicidal effect (reduction of spore counts) in water ([3]; test compound alone in water at 0.1%): no significant sporicidal effect; also recorded: No significant reduction of spore counts | Bacteria (cfu/g cream) 24 h [4, 5]: 3.8 × 10^3 cfu/g cream | Bacteria (cfu/g cream) 7 d [4, 5]: 1.28 × 10^4 cfu/g cream | Bacteria (cfu/g cream) 24 h [4, 6]: 1 × 10^3 cfu/g cream | Bacteria (cfu/g cream) 7 d [4, 6]: <200 cfu/g cream | Bacteria (cfu/g cream) 24 h [4, 7]: 1.9 × 10^4 cfu/g cream | Bacteria (cfu/g cream) 7 d [4, 7]: <200 cfu/g cream
